Measured values: US20250188075A1, “SUBSTITUTED HETEROCYCLIC CSNK1 INHIBITORS” (The Broad Institute, Inc., priority 2022, published 2025)
Read-outs that look alike come from different tables or passages of the source.

Key:
human CSNK1A1 = human CSNK1A1 (Homo sapiens (Human), UniProt P48729); assay: CSNK1A1 high ATP assay (ADP-Glo, 1 mM ATP); assay type: biochemical; conditions: median, read-out: CSNK1A1 High ATP assay IC50 [mol/l] (median)
Method: CSNK1A1-inhibitory activity of compounds of the present invention in presence of 1 mM adenosine-tri-phosphate (ATP) was quantified employing the CSNK1A1-high-ATP-assay as described in the following paragraphs. In essence, the enzyme activity is measured by quantification of the adenosine-di-phosphate (ADP), which is generated as a co-product of the enzyme reaction, via the “ADP-Glo™ Kinase Assay” kit from the company Promega. This detection system works as follows: In a first step the ATP not consumed in the kinase reaction is quantitatively converted to CAMP employing an adenylate cyclase (“ADP-Glo-reagent”), then the adenylate cyclase is stopped and the ADP generated in the kinase reaction converted to ATP which generates in a luciferase-based reaction a glow-luminescence signal (“Kinase Detection Reagent”).
Recombinant fusion protein of N-terminal Glutathion-S-Transferase (GST) and full-length human CSNK1A1, expressed by baculovirus infected insect cells and purified via Glutathion affinity chromatography, was purchased from Life Technologies (product no. PV4174) and used as enzyme. As substrate for the kinase reaction the biotinylated peptide biotin-Ahx-KRRRAL-pS-VASLPGL (C-terminus in amide form) was used which can be purchased e.g. from the company Biosyntan (Berlin-Buch, Germany).
For the assay 50 nl of a 100 fold concentrated solution of the test compound in DMSO was pipetted into a white low volume 384-well microtiter plate (Greiner Bio-One, Frickenhausen, Germany), 2 μL of a solution of CSNK1A1 in aqueous assay buffer [50 mM HEPES pH 7.5, 10% (v/v) glycerol, 10 mM MgCl2, 50 mM NaCl, 1 mM dithiothreitol, 0.01% (w/v) bovine serum albumin, 0.01% (v/v) Triton X-100] were added and the mixture was incubated for 15 min at 22° C. to allow pre-binding of the test compounds to the enzyme before the start of the kinase reaction. Then the kinase reaction was started by the addition of 3 μL of a solution of ATP (1.67 mM=>final conc. in the 5 μL assay volume is 1 mM) and peptide substrate (167 μM=>final conc. in the 5 μL assay volume is 100 μM) in assay buffer and the resulting mixture was incubated for a reaction time of 30 min at 22° C. The concentration of CSNK1A1 was adjusted depending of the activity of the enzyme lot and was chosen appropriate to have the assay in the linear range, a typical concentration is about 0.4 ng/μL. The reaction was stopped by the addition of 2.5 μL of “ADP-Glo-reagent” (1:1.5 fold diluted with water) and the resulting mixture was incubated at 22° C. for 1 h to convert the ATP not consumed in the kinase reaction completely to CAMP. Subsequently 2.5 μL of the “kinase detection reagent” (1.2 fold more concentrated than recommended by the producer) were added, the resulting mixture was incubated at 22° C. for 1 h and then the luminescence measured with a suitable measurement instrument (e.g. Viewlux™ from Perkin-Elmer). The amount of emitted light was taken as a measure for the amount of ADP generated and thereby for the activity of the CSNK1A1.
The data were normalised (enzyme reaction without inhibitor=0% inhibition, all other assay components but no enzyme=100% inhibition).

HT-29 cells = assay: HT29 cell proliferation assay, CTG method; assay type: cell-based; conditions: HT-29, CTG, 96 h, median, read-out: 2D-PROLI HT-29 CTG 96 h, IC50 - [mol/l] (median)
Method: CELL PROLIFERATION ASSAY CTG METHOD, 384-well version: Day 1: plated 400 cells/30 μL/well in growth medium (DMEM/Ham's F12; (Biochrom; #FG 4815, mit stabilem Glutamin)+FCS (final: 10%); (Biochrom; #S 0415)) in 384-well black plates (Corning #3571). Plated sister wells in a separate plate for time zero determination. Incubated all plates overnight at 37° C. Day 2: added test compounds in serial dilutions using the HP D300 Digital Dispenser and incubated at 37° C. for 96 h. Measured time zero plate: add 30 μL/well CTG solution (Promega CellTiter-Glo solution (catalog #G7573)) to wells in time zero plate; incubated for 2 minutes in a orbital shaker to induce cell lysis; allowed the plate to incubate at room temperature for additional 10 min to stabilize luminescent signal and read luminescence on PheraStar (rapid mode—0.02 sec/well; GAIN 3000). Day 6: Added 30 μL/well CTG solution to all test wells, incubated for 2 minutes in a orbital shaker to induce cell lysis; allowed the plate to incubate at room temperature for additional 10 min to stabilize luminescent signal and read luminescence on PheraStar (rapid mode—0.02 sec/well; GAIN 3000 Proliferation IC50s were calculated using the DRC application in ShiNy Analysis Platform-SNAP.”

HCT 116 cells = assay: HCT 116 cell proliferation assay, CTG; assay type: cell-based; conditions: HCT 116, CTG, 96 h, median, read-out: 2D-PROLI HCT 116 CTG 96 h, IC50 - [mol/l] (median)
Method: 400 HCT 116 cells/30 μL/well were plated in growth medium (DMEM/Ham's F12, 10% FCS) in a 384-well plate (CORNING #3571) at day 1. Reference plate was seeded for time zero determination. All plates were incubated overnight 37° C. Day 2: test compound was added in 7-step dilution and incubate at 37° C. for 96 h. Day 2: time zero plate: 30 μL/well CTG solution (Promega Cell Titer Glo solution; catalog #G755B and G756B) were added, incubated for 30 minutes, read luminescence on PheraStar. Day 6: compound treated plates: 30 μL/well CTG solution (Promega Cell Titer Glo solution; catalog #G755B and G756B) were added, incubated for 30 minutes, luminescence was read on PheraStar. Proliferation was calculated after subtracting time zero luminescence values from day 6 values and comparing to untreated wells. The IC50 values were determined using the four parameter fit.

[1] = Solubility assay (thermodynamic solubility); assay type: physicochemical; conditions: aqueous buffer; for solubility thermodynamic at 24 h: thermodynamic from solid, mean; for Thermodynamic Solubility [mg/l] (mean) / Thermodynamic Solubility [μmol/L] (mean): 24 h
Method: Solubility of solid compound in aqueous buffer was determined by an equilibrium shake flask method. A saturated solution of drug in solvent (˜2 mg/ml solvent) was prepared and the solution was mixed for 24 h to ensure that equilibrium has been reached. The solution was centrifuged to remove the insoluble fraction and the concentration of the compound in solution was determined by HPLC-UV using a standard calibration curve (Kerns, E. H. et al., Solubility Methods in: Drug-like Properties: Concepts, Structure Design and Methods, p 276-286. Burlington, MA: Academic Press 2008).

[2] = read-out: Thermodynamic Solubility [mg/l] (mean)
[3] = read-out: Thermodynamic Solubility [μmol/L] (mean)

Sequence of human CSNK1A1 (P48729 whole entry): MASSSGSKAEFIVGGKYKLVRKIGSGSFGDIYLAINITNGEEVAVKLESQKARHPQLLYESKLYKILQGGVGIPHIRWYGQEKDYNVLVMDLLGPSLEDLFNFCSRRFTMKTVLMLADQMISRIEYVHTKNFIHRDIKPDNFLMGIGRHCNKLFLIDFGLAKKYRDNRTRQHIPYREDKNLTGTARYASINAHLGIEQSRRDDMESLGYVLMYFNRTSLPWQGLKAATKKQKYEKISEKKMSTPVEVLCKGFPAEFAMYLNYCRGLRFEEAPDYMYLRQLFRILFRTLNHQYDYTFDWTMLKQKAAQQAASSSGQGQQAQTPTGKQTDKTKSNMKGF

Structure (SMILES) | IC50 (human CSNK1A1) [nM] | IC50 (HT-29 cells; Homo sapiens) [nM] | IC50 (HCT 116 cells; Homo sapiens) [nM] | solubility thermodynamic at 24 h [1, 2] [mg/L] | solubility thermodynamic at 24 h [1, 3] [µmol/L] | IC50 (HT-29 cells) [nM] | IC50 (HCT 116 cells) [nM] | Thermodynamic Solubility [mg/l] (mean) [1] [mg/L] | Thermodynamic Solubility [μmol/L] (mean) [1] [µmol/L]
Cc1cc(CC(=O)Nc2cc(-c3[nH]c4cccnc4c3-c3ccccn3)ccn2)no1 [Example 26, 2-(5-methylisoxazol-3-yl)-N-[4-[3-(2-pyridyl)-^1H-pyrrolo[3,2-b]pyridin-2-yl]-2-pyridyl]acetamide] | 90.8 | 466 | 496 | 6.1 | 14.9 |  |  |  | 
O=C(Cc1cc(C2CC2)on1)Nc1cc(-c2[nH]c3cccnc3c2-c2ccccn2)ccn1 [Example 27, 2-(5-cyclopropylisoxazol-3-yl)-N-[4-[3-(2-pyridyl)-^1H-pyrrolo[3,2-b]pyridin-2-yl]-2-pyridyl]acetamide] | 244 | 338 | 489 | < 0.1 | < 0.23 |  |  |  | 
Cc1noc(C)c1CC(=O)Nc1cc(-c2[nH]c3cccnc3c2-c2ccccn2)ccn1 [Example 12, 2-(3,5-dimethylisoxazol-4-yl)-N-[4-[3-(2-pyridyl)-^1H-pyrrolo[3,2-b]pyridin-2-yl]-2-pyridyl]acetamide] | 66.9 | 1190 | 1080 | 9.9 | 23.3 |  |  |  | 
Cc1nn(C)c(C)c1CC(=O)Nc1cc(-c2[nH]c3cccnc3c2-c2ccccn2)ccn1 [Example 17, N-[4-[3-(2-pyridyl)-^1H-pyrrolo[3,2-b]pyridin-2-yl]-2-pyridyl]-2-(1,3,5-trimethylpyrazol-4-yl)acetamide] | 124 | 1180 | 1030 | 14.9 | 34.1 |  |  |  | 
O=C(Cc1cnc2ccccn12)Nc1cc(-c2[nH]c3cccnc3c2-c2ccccn2)ccn1 [Example 1, 2-imidazo[1,2-a]pyridin-3-yl-N-[4-[3-(2-pyridyl)-^1H-pyrrolo[3,2-b]pyridin-2-yl]-2-pyridyl]acetamide] | 38.5 | 2670 | 3870 | 9.6 | 21.6 |  |  |  | 
Cc1cc(CC(=O)Nc2cc(-c3[nH]c4cccnc4c3-c3ccccn3)ccn2)n(C)n1 [Example 14] | 30.6 | 508 | 544 | 4.6 | 10.9 |  |  |  | 
O=C(Cc1ccn(CC(F)(F)F)n1)Nc1cc(-c2[nH]c3cccnc3c2-c2ccccn2)ccn1 [Example 20, N-[4-[3-(2-pyridyl)-^1H-pyrrolo[3,2-b]pyridin-2-yl]-2-pyridyl]-2-[1-(2,2,2-trifluoroethyl)pyrazol-3-yl]acetamide] | 98.7 | 341 | 344 | 23.9 | 50.1 |  |  |  | 

Continued, values first:

IC50 (human CSNK1A1) [nM] | IC50 (HT-29 cells; Homo sapiens) [nM] | IC50 (HCT 116 cells; Homo sapiens) [nM] | solubility thermodynamic at 24 h [1, 2] [mg/L] | solubility thermodynamic at 24 h [1, 3] [µmol/L] | IC50 (HT-29 cells) [nM] | IC50 (HCT 116 cells) [nM] | Thermodynamic Solubility [mg/l] (mean) [1] [mg/L] | Thermodynamic Solubility [μmol/L] (mean) [1] [µmol/L] | Structure (SMILES)
8.84 |  |  |  |  | 110 | 735 | <0.10 | <0.18 | O=C(Nc1cc(-c2[nH]c3c(OCC(F)F)ncnc3c2-c2ccccn2)ccn1)[C@@H](CC(F)F)c1ccc(F)cc1 [Example C3, reference compound]
20.1 |  |  |  |  | 206 | 429 | 9.60 | 21.55 | O=C(Nc1cc(-c2[nH]c3nccnc3c2-c2ccccn2)ccn1)[C@@H](CC(F)F)c1ccc(F)cc1 [Example C1, reference compound]
291 | 1240 | 1680 | 84 | 177 |  |  |  |  | Cn1cc(C(CC(F)F)C(=O)Nc2cc(-c3[nH]c4cccnc4c3-c3ccccn3)ccn2)cn1 (stereo not shown) [Example 19, 4,4-difluoro-2-(1-methylpyrazol-4-yl)-N-[4-[3-(2-pyridyl)-^1H-pyrrolo[3,2-b]pyridin-2-yl]-2-pyridyl]butanamide]
589 | 3420 | 2790 | > 409 | > 1000 |  |  |  |  | Cn1cnc(CC(=O)Nc2cc(-c3[nH]c4cccnc4c3-c3ccccn3)ccn2)c1 [Example 5, 2-(1-methylimidazol-4-yl)-N-[4-[3-(2-pyridyl)-^1H-pyrrolo[3,2-b]pyridin-2-yl]-2-pyridyl]acetamide]
41.3 | 442 | 626 | 65.9 | 161 |  |  |  |  | Cc1cc(CC(=O)Nc2cc(-c3[nH]c4cccnc4c3-c3ccccn3)ccn2)on1 [Example 13, 2-(3-methylisoxazol-5-yl)-N-[4-[3-(2-pyridyl)-^1H-pyrrolo[3,2-b]pyridin-2-yl]-2-pyridyl]acetamide]
41.2 | 337 | 357 | 12.6 | 30.6 |  |  |  |  | O=C(Cc1ccns1)Nc1cc(-c2[nH]c3cccnc3c2-c2ccccn2)ccn1 [Example 22, 2-isothiazol-5-yl-N-[4-[3-(2-pyridyl)-^1H-pyrrolo[3,2-b]pyridin-2-yl]-2-pyridyl]acetamide]
5.27 |  |  |  |  | 88.8 | 184 | 0.20 | 0.40 | O=C(Nc1cc(-c2[nH]c3ccc(F)nc3c2-c2ccccn2)ccn1)[C@@H](CC(F)F)c1ccc(F)cc1 [Example C2, reference compound]
